For data set [1], the system named is NIH3T3 (mouse embryonic fibroblast). The data set is described as follows: Basal cytotoxicity test, Neutral Red Uptake (NRU) assay. The following applies: for IC50: Mus musculus, NIH3T3, 24 h.
Description: The NRU cytotoxicity assay procedure is based on the ability of viable cells to incorporate and bind neutral red, a supravital dye.
Balb/c NIH 3T3 (mouse Swiss albino embryo fibroblast, ATCC® CRL-1658™) cells (9000 cells/well) were placed into 96-well plates for 24 h in Dulbecco's modified Eagle's medium (DMEM) containing 5% fetal bovine serum. Then, the cells were exposed to the test compound over a range of seven concentrations (1000, 316, 100, 31, 10, 3, and 1 μg/ml) for 24 h. Untreated cells were used as a control. After 24 h, the medium was removed from all plates. Then, 150 μl of neutral red solution was added (0.05 mg/ml NR in DMEM 24 h preincubated at 37°C and then filtered before use through a 0.22 μm syringe filter). Plates were incubated for 3 h, and then, the cells were washed three times with PBS. The dye within viable cells was released by extraction with a mixture of acetic acid, ethanol, and water (1 : 50 : 49). The absorbance of neutral red was measured using a spectrophotometer multiplate reader (Tecan Infinite M1000) at 540 nm. The optical density (OD) was calculated using the following formula: OD (treated cells) × 100/OD (control cells). The IC50 values were calculated using the GraphPad Prism® 3.0 program.
Data set [2] relates to HT-1080 (human lung fibrosarcoma). The data set is described as follows: Cytotoxicity, crystal violet (CV) assay, HT-1080. The following applies: Homo sapiens, HT-1080, 72 h, read-out: HT-1080 IC50 (CV).
Description: IC50 is the compound concentration (μg/ml) at which 50% of the cells die. […] CV staining can be used to quantify the total DNA of the remaining population and thus is used to determine the number of live cells based on the concentration of the dye which remains after staining.
Tumor cell lines HT-1080 (human connective tissue fibrosarcoma, ATCC® CCL-121™) and MH-22A (mouse hepatocarcinoma, ECACC, cat. Nr. 96121721) were used.
HT-1080 and MH-22A cells were seeded in 96-well plates in Dulbecco's modified Eagle's (DMEM) medium containing 10% fetal bovine serum and 4 mM L-glutamine, without antibiotics, and cultivated for 72 h by exposure to different concentrations of compounds. Cell viability was measured using 3-(4,5-dimethylthiazol-2-yl)-2,5-diphenyltetrazolinium bromide (MTT). In brief, after incubating with compounds, the culture medium was removed and fresh medium with 0.2 mg/ml MTT was added in each well of the plate. After incubation (3 h, 37°C, 5% CO2), the medium with MTT was removed, and 200 μl DMSO was added at once to each sample. The samples were tested at 540 nm on a Tecan Infinite M1000 multiplate reader. The IC50 was calculated using the program GraphPad Prism® 3.0.
For the CV assay, cells were stained with 0.05% crystal violet (Sigma-Aldrich) in 30% methanol for 20 minutes at room temperature. After incubation, the staining solution was removed. The cells were washed 4 times with water. For dye solubilization, 200 μl of a solubilizing solution (0.1 M citrate buffer, pH 4.2 in 50% ethanol; 1 : 1 v/v) was added. The absorbance of the solution was measured using a Tecan Infinite M1000 multiplate spectrophotometer at a wavelength of 570 nm [21].
The test system of data set [3] is MH-22A (mouse hepatoma). As to the kind of experiment: Cytotoxicity, MTT assay, MH-22A. It is filed as cell-based. The following applies: 72 h exposure; for IC50: Mus musculus, read-out: MH-22A IC50 (MTT). From the text: (§1) Reduction takes place only when mitochondrial reductase enzymes are active, and therefore, conversion is directly related to the number of viable cells which can be quantified by the absorbance of the solution (between λ = 500 and 600 nm) using a spectrophotometer.
Background: Formazan colour is commonly taken as a measure of viable cells.

For data set [4], the system named is HT-1080 (human lung fibrosarcoma). The data set is described as follows: Cytotoxicity, MTT assay, HT-1080. It is filed as cell-based. Conditions: 72 h exposure; for IC50: Homo sapiens, HT-1080, read-out: HT-1080 IC50 (MTT).
Description: as §1

The subject of data set [5] is MH-22A (mouse hepatoma). The data set is described as follows: Cytotoxicity, crystal violet (CV) assay, MH-22A. The format is cell-based. Conditions: Mus musculus, 72 h exposure, read-out: MH-22A IC50 (CV). The protocol:
After incubation, the staining solution was removed. The cells were washed 4 times with water.

Data set [6] deals with NIH3T3. As to the kind of experiment: in vitro. Conditions: for LD50 (calculated, NIH3T3): mouse. The text has this:
Data from the in vitro tests were used for estimating the starting dose for acute oral systemic toxicity tests in the rodent. The in vivo starting dose is an estimated LD50 value calculated by inserting the in vitroIC50 value into a regression formula: log LD50 (mM/kg) = 0.439 log IC50 (mM) + 0.621 [23–25]. […] Using an alternative in vitro method allows the comparison between possibly toxic new compounds and selecting compounds for further study vastly reducing the number of animal experiments.
Additionally, the compound influence on “normal” mouse fibroblasts (NIH3T3) was estimated for the studies of structure-activity relationships and exploration of the effect of substituents.

Where [7] appears, read: read-out: NIH3T3 IC50 (NR), Table 2, 24 h exposure.

Like-named read-outs stand apart in the source and are kept apart here. A value given as a limit tells only on which side of the number the result lay.

In general, IC50 refers to the concentration that gives 50% inhibition. As to `CCCCCCCCCCCCOC(=O)C1=C(C[N+](C)(C)CCCCCCCCCCCC)NC(=O)CC1` [compound 37, N-((3-(dodecyloxycarbonyl)-6-oxo-1,4,5,6-tetrahydropyridin-2-yl)methyl-N,N-dimethyldodecan-1-aminium bromide], the IC50 was 7 ± 1 µg/mL in data set [1] (setting [7]); 2 ± 0.5 µg/mL in data set [2]; 1 ± 0.2 µg/mL in data set [3] (Table 2); 3 ± 0.4 µg/mL in data set [4] (Table 2); 3 ± 0.6 µg/mL in data set [5] (Table 2).
As to `CCCCCCCCCCCC[N+](C)(C)CC1=C(C(=O)OC)CCC(=O)N1` [compound 36, N-((3-(methyloxycarbonyl)-6-oxo-1,4,5,6-tetrahydropyridin-2-yl)methyl-N,N-dimethyldodecan-1-aminium bromide], the IC50 worked out at 63 ± 11 µg/mL in data set [1] (setting [7]); 2 ± 0.2 µg/mL in data set [2]; 16 ± 3 µg/mL in data set [3] (Table 2); 1 ± 0.2 µg/mL in data set [4] (Table 2); 18 ± 3 µg/mL in data set [5] (Table 2).
For `CCCCCCCCCCCC[N+](C)(C)CC1=C(C(=O)OC)C(c2ccccc2)CC(=O)N1` (stereo not shown) [compound 33, N-((3-(methyloxycarbonyl)-6-oxo-4-phenyl-1,4,5,6-tetrahydropyridin-2-yl)methyl-N,N-dimethyldodecan-1-aminium bromide], in that order: 4 ± 1 µg/mL, 2 ± 0.4 µg/mL, 2 ± 0.6 µg/mL, 1 ± 0.2 µg/mL and 2 ± 0.1 µg/mL.
On to `CCCCCCCCCCCCOC(=O)C1=C(C[n+]2ccccc2)NC(C[n+]2ccccc2)=C(C(=O)OCCCCCCCCCCCC)C1c1ccc(O)cc1.[Br-].[Br-]` [compound 18, 1,1'-((3,5-Bis((dodecyloxy)carbonyl)-4-(4-hydroxyphenyl)-1,4-dihydropyridine-2,6-diyl)bis(methylene))bis(pyridin-1-ium) dibromide], for which the IC50 in data set [1] (read-out: NIH3T3 IC50 (NR)) was 95 ± 7 µg/mL; in data set [2], 4.3 ± 0.6 µg/mL; in data set [3] (Table 1), 16 ± 2 µg/mL; in data set [4] (Table 1), 10 ± 2 µg/mL; in data set [5] (Table 1), 3.4 ± 0.6 µg/mL.
As for `CCOC(=O)C1=C(C[n+]2ccc(N(C)C)cc2)NC(C[n+]2ccc(N(C)C)cc2)=C(C(=O)OCC)C1c1ccccc1.[Br-].[Br-]` [compound 4, 1,1'-((3,5-Bis(ethoxycarbonyl)-4-phenyl-1,4-dihydropyridine-2,6-diyl)bis(methylene))-bis(4-(dimethylamino)pyridin-1-ium) dibromide], the IC50 in data set [1] (read-out: NIH3T3 IC50 (NR)) is over 1000 µg/mL; in data set [3] (Table 1), 608 ± 49 µg/mL; in data set [4] (Table 1), 324 ± 29 µg/mL. Besides, the “LD50 (calculated, NIH3T3)” value in data set [6] was over 2000 mg/kg.
Consider “1,1'-((4-(2-(Difluoromethoxy)phenyl)-3,5-bis(methoxycarbonyl)-1,4-dihydropyridine-2,6-diyl)bis(methylene))bis(1-methylpiperidin-1-ium) diperchlorate [compound 9]”, for which the “NIH3T3 IC50 (NR)” value in data set [1] (Table 1, 24 h exposure) is on record as “∗ (∗: not detected)”. The “MH-22A IC50 (MTT)” value in data set [3] (Table 1) was “∗ (∗: not detected)”. In addition, in data set [4] (Table 1), the “HT-1080 IC50 (MTT)” value is recorded as “∗ (∗: not detected)”.
On to `CCCCCCCCCCCCOC(=O)C1=C(C[N+](C)(C)CCCCCCCCCCCC)NC(C[N+](C)(C)CCCCCCCCCCCC)=C(C(=O)OCCCCCCCCCCCC)C1c1ccccc1.[O-][Cl+3]([O-])([O-])[O-].[O-][Cl+3]([O-])([O-])[O-]` [compound 20, N,N'-((3,5-bis((dodecyloxy)carbonyl)-4-phenyl-1,4-dihydropyridine-2,6-diyl)bis(methylene))bis(N,N-dimethyldodecan-1-aminium) diperchlorate], for which the IC50 in data set [1] (read-out: NIH3T3 IC50 (NR), Table 1, 24 h exposure) amounted to 19 ± 6 µg/mL; in data set [2] it was 3 ± 0.3 µg/mL; in data set [3] (Table 1) it was 10 ± 2 µg/mL; in data set [4] (Table 1), 3 ± 0.4 µg/mL; in data set [5] (Table 1), 10 ± 2 µg/mL.
Regarding `CCCCCCCCCCCCOC(=O)C1=C(C[N+](C)(C)CCCCCCCCCCCC)NC(=O)CC1c1ccccc1` (stereo not shown) [compound 34, N-((3-(dodecyloxycarbonyl)-6-oxo-4-phenyl-1,4,5,6-tetrahydropyridin-2-yl)methyl-N,N-dimethyldodecan-1-aminium bromide], the IC50 was 6 ± 2 µg/mL in data set [1] (setting [7]); 2 ± 0.2 µg/mL in data set [2]; under 1 µg/mL in data set [3] (Table 2); 2 ± 0.6 µg/mL in data set [4] (Table 2); 3 ± 0.8 µg/mL in data set [5] (Table 2).
For `O=C1CC(c2ccccc2)C(C(=O)OCCCCC(F)(F)C(F)(F)C(F)(F)C(F)(F)C(F)(F)C(F)(F)C(F)(F)C(F)(F)F)=C(C[n+]2ccccc2)N1.[Br-]` (stereo not shown) [compound 31, 1-((3-(((5,5,6,6,7,7,8,8,9,9,10,10,11,11,12,12,12-Heptadecafluorododecyl)oxy)carbonyl)-6-oxo-4-phenyl-1,4,5,6-tetrahydropyridin-2-yl)methyl)pyridin-1-ium bromide], the IC50 is 15 ± 2 µg/mL in data set [1] (setting [7]); 3 ± 0.3 µg/mL in data set [2]; 3 ± 0.6 µg/mL in data set [3] (Table 2); 3 ± 0.2 µg/mL in data set [4] (Table 2); 3 ± 1 µg/mL in data set [5] (Table 2).
In the case of `CCOC(=O)C1=C(C[n+]2ccc(N)cc2)NC(C[n+]2ccc(N)cc2)=C(C(=O)OCC)C1c1ccccc1.[Br-].[Br-]` [compound 3, 1,1'-((3,5-Bis(ethoxycarbonyl)-4-phenyl-1,4-dihydropyridine-2,6-diyl)bis(methylene))-bis(4-aminopyridin-1-ium) dibromide], the IC50 was over 1000 µg/mL in data set [1] (read-out: NIH3T3 IC50 (NR)), over 740 µg/mL in data set [3] (Table 1) and 441 ± 46 µg/mL in data set [4] (Table 1). Besides, the “LD50 (calculated, NIH3T3)” value in data set [6] is over 2000 mg/kg.
As for `O=C1CC(c2ccccc2)C(C(=O)OCCCCC(F)(F)C(F)(F)C(F)(F)C(F)(F)C(F)(F)C(F)(F)C(F)(F)C(F)(F)F)=C(C[n+]2ccccc2)N1.[O-][Cl+3]([O-])([O-])[O-]` (stereo not shown) [compound 32, 1-((3-(((5,5,6,6,7,7,8,8,9,9,10,10,11,11,12,12,12-Heptadecafluorododecyl)oxy)carbonyl)-6-oxo-4-phenyl-1,4,5,6-tetrahydropyridin-2-yl)methyl)pyridin-1-ium perchlorate], the IC50 in data set [1] (setting [7]) was determined as 15 ± 3 µg/mL; in data set [2], 3 ± 0.3 µg/mL; in data set [3] (Table 2) it was 3 ± 0.2 µg/mL; in data set [4] (Table 2) it was 3 ± 0.5 µg/mL; in data set [5] (Table 2), 2 ± 0.3 µg/mL.
For `CCCCCCCCCCCCCCCCOC(=O)/C=C(\N)C[N+](C)(C)CCCCCCCCCCCC` [compound 46, (Z,E)-N-(2-Amino-4-(hexadecyloxy)-4-oxobut-2-en-1-yl)-N,N-dimethyldodecan-1-aminium iodide], the “IC50 in NIH3T3 cell lines” value in data set [1] is reported as “around 30 μg/ml”. Besides, the “NIH3T3 IC50 (NR)” value in data set [1] (Table 3, 24 h exposure) was 34 ± 8 µg/mL. Besides, the “NIH3T3 LD50” value in data set [6] (Table 3, calculated from NIH3T3 IC50 by regression formula) is reported as 637 mg/kg.
As to `CCCCCCCCCCCC[N+](C)(C)CC1=C(C(=O)OCCCCC(F)(F)C(F)(F)C(F)(F)C(F)(F)C(F)(F)C(F)(F)C(F)(F)C(F)(F)F)C(c2ccccc2)CC(=O)N1` (stereo not shown) [compound 35, N-((3-((5,5,6,6,7,7,8,8,9,9,10,10,11,11,12,12,12-Heptadecafluorododecyloxy)carbonyl)-6-oxo-4-phenyl-1,4,5,6-tetrahydropyridin-2-yl)methyl-N,N-dimethyldodecan-1-aminium bromide], the IC50 was determined as 27 ± 9 µg/mL in data set [1] (setting [7]); 3 ± 0.3 µg/mL in data set [2]; 30 ± 8 µg/mL in data set [3] (Table 2); 30 ± 11 µg/mL in data set [4] (Table 2); 26 ± 6 µg/mL in data set [5] (Table 2).
Consider `CCCCCCCCCCCCOC(=O)C1=C(C[n+]2ccc(C)cc2)NC(C[n+]2ccc(C)cc2)=C(C(=O)OCCCCCCCCCCCC)C1c1ccc(O)cc1.[Br-].[Br-]` [compound 19, 1,1'-((3,5-Bis((dodecyloxy)carbonyl)-4-(4-hydroxyphenyl)-1,4-dihydropyridine-2,6-diyl)bis(methylene))bis(4-methylpyridin-1-ium) dibromide], for which the IC50 in data set [1] (read-out: NIH3T3 IC50 (NR)) turned out to be 44 ± 11 µg/mL; in data set [2], 32 ± 8 µg/mL; in data set [3] (Table 1) it was 30 ± 8 µg/mL; in data set [4] (Table 1), 22 ± 5 µg/mL; in data set [5] (Table 1), 21 ± 3 µg/mL.

These data come from article PMC7790557, “Pleiotropic Properties of Amphiphilic Dihydropyridines, Dihydropyridones, and Aminovinylcarbonyl Compounds” (Oxidative Medicine and Cellular Longevity, 2020).
